Square brackets hold non-standard residues; d marks the D form. Peptide text beside a SMILES is read from it. * marks the point of attachment. Dolaproine = CO[C@@H]([C@@H]1CCCN1)[C@@H](C)C(=O)O; Dil = CC[C@H](C)[C@H](NC)[C@@H](CC(=O)O)OC; dVal(3-OH) = CC(C)(O)[C@@H](N)C(=O)O; Val(3-OH) = CC(C)(O)[C@H](N)C(=O)O; Doe = c1ccc(C[C@H](N*)c2nccs2)cc1; X1 = C[C@@H](N*)[C@@H](O)c1ccccc1; NMeV = CN[C@H](C(=O)O)C(C)C; NMeAib = CNC(C)(C)C(=O)O; Aib = CC(C)(N)C(=O)O
Assays:
Assay type in all cases: cell-based
[1] = test system: HCC1954 cells; assay: Inhibitory response against HCC1954 cells (method analogous to BT-474); conditions: Homo sapiens, inhibition of cell growth
Description: (§1) BT-474 human mammary gland ductal carcinoma cells were seeded in a clear polystyrene 96-well microculture plate (Corning® Costar® 96-well flat bottom plate, Cat. #3997) in a total volume of 90 μL/well. After 24 hours of incubation in a humidified incubator at 37° C. with 5% CO2 and 95% air, 10 μL of 10×, serially diluted test agents in growth medium were added to each well (10 pt dose response curve, highest concentration 10 M of test agent). After 72 hours of culture in a humidified incubator at 37° C., in an atmosphere of 5% CO2 and 95% air, the plated cells and Cell Titer-Glo® (Promega G7571) reagents were brought to room temperature to equilibrate for 30 minutes. 100 μL of Cell Titer-Glo® reagent was added to each well. The plate was shaken for two minutes and then left to equilibrate for ten minutes. The media/Cell Titer-Glo® reagent was transferred to a white polystyrene 96-well microculture plate (Corning® Costar® 96-well flat bottom plate, Cat. #3917) before reading luminescence on a Tecan GENios microplate reader.
(§2) Percent inhibition of cell growth was calculated relative to untreated control wells. The IC50 value for the test agents was determined using Prism 6.05 by curve-fitting of the data using the following four parameter-logistic equation:
(§3) [formula] where Top is the maximal % of control absorbance, Bottom is the minimal % of control absorbance at the highest agent concentration, Y is the % of control absorbance, X is the agent concentration, IC50 is the concentration of agent that inhibits cell growth by 50% compared to the control cells, and n is the slope of the curve.
Inhibitory response of test compounds against HCC1954 cells was determined using a method analogous to that used for BT-474 cells.

[2] = test system: BT-474 human mammary gland ductal carcinoma cells; assay: Inhibitory response against BT-474 cells (Cell Titer-Glo); conditions: 72 hours of culture, inhibition of cell growth
Description: as §1, §2, §3

[3] = test system: MES-SA (human uterine sarcoma) cells; assay: Inhibitory response against MES-SA cells (Cell Titer-Glo); conditions: 72 hours of culture, inhibition of cell growth
Description: as §1, with “MES-SA (human uterine sarcoma)” for “BT-474 human mammary gland ductal carcinoma”, “μM” for “M”
Percent inhibition of cell growth is calculated relative to untreated control wells. The IC50 value for the test agents is determined using Prism 6.05 by curve-fitting of the data using the following four parameter-logistic equation:
as §3

[4] = test system: MES-SA/Dx (multidrug-resistant human uterine sarcoma) cells; assay: Inhibitory response against MES-SA/Dx cells (Cell Titer-Glo); conditions: 72 hours of culture, inhibition of cell growth
Description: MES-SA/Dx (multidrug-resistant human uterine sarcoma) cells are seeded in a clear polystyrene 96-well microculture plate in a total volume of 90 μL/well. After 24 hours of incubation in a humidified incubator at 37° C. with 5% CO2 and 95% air, 10 μL of 10×, serially diluted test agents in growth medium are added to each well. After 72 hours of culture in a humidified incubator at 37° C., in an atmosphere of 5% CO2 and 95% air, the plated cells and Cell Titer-Glo® (Promega G7571) reagents are brought to room temperature to equilibrate for 30 minutes. 100 μL of Cell Titer-Glo® reagent are added to each well. The plate is shaken for two minutes and then left to equilibrate for ten minutes. The media/Cell Titer-Glo® reagent is transferred to a polystyrene 96-well microculture plate before reading luminescence on a Tecan GENios microplate reader.
Percent inhibition of cell growth is calculated relative to untreated control wells. The IC50 value for the test agents is determined using Prism 6.05 by curve-fitting of the data using the following four parameter-logistic equation: […]

SMILES: CC[C@H](C)[C@@H]([C@@H](CC(=O)N1CCC[C@H]1[C@H](OC)[C@@H](C)C(=O)N[C@@H](Cc1ccccc1)c1nccs1)OC)N(C)C(=O)[C@@H](NC(=O)C(C)(C)N)C(C)(C)O [Compound 113] (H-[Aib][Val(3-OH)][Dil][Dolaproine]-Doe)
- IC50 [1]: 1.24 nM
- IC50 [2]: 1.22 nM

SMILES: CC[C@H](C)[C@@H]([C@@H](CC(=O)N1CCC[C@H]1[C@H](OC)[C@@H](C)C(=O)N[C@@H](Cc1ccccc1)c1nccs1)OC)N(C)C(=O)[C@H](CSC)NC(=O)C(C)(C)NC [Compound 111] (H-[NMeAib]C(Me)[Dil][Dolaproine]-Doe)
- IC50 [1]: 0.0656 nM
- IC50 [2]: 0.863 nM

SMILES: CC[C@H](C)[C@@H]([C@@H](CC(=O)N1CCC[C@H]1[C@H](OC)[C@@H](C)C(=O)N[C@@H](Cc1ccccc1)c1nccs1)OC)N(C)C(=O)[C@H](NC(=O)C(C)(C)NC)C(C)(C)O [Compound 114] (H-[NMeAib][dVal(3-OH)][Dil][Dolaproine]-Doe)
- IC50 [1]: 0.017 nM
- IC50 [2]: 0.0616 nM

SMILES: CC[C@H](C)[C@@H]([C@@H](CC(=O)N1CCC[C@H]1[C@H](OC)[C@@H](C)C(=O)N[C@@H](Cc1ccccc1)c1nccs1)OC)N(C)C(=O)[C@@H](NC(=O)C(C)(C)NC)C(C)(C)O [Compound 107] (H-[NMeAib][Val(3-OH)][Dil][Dolaproine]-Doe)
- IC50 [1]: 0.03 nM
- IC50 [2]: 0.064 nM

SMILES: CC[C@H](C)[C@@H]([C@@H](CC(=O)N1CCC[C@H]1[C@H](OC)[C@@H](C)C(=O)N[C@H](C)[C@@H](O)c1ccccc1)OC)N(C)C(=O)[C@@H](NC(=O)C(C)(C)NC)C(C)(C)O [Compound 110] (H-[NMeAib][Val(3-OH)][Dil][Dolaproine]-X1)
- IC50 [1]: 2.92 nM
- IC50 [3]: 4.18 nM
- IC50 [2]: 9.09 nM

SMILES: CC[C@H](C)[C@@H]([C@@H](CC(=O)N1CCC[C@H]1[C@H](OC)[C@@H](C)C(=O)N[C@@H](Cc1ccccc1)c1nccs1)OC)N(C)C(=O)[C@@H](NC(=O)[C@H](C(C)C)N(C)C)C(C)(C)O [Compound 101]
- IC50 [1]: 0.004 nM
- IC50 [4]: 6.37 nM
- IC50 [3]: 0.035 nM
- IC50 [2]: 0.0022 nM

SMILES: CC[C@H](C)[C@@H]([C@@H](CC(=O)N1CCC[C@H]1[C@H](OC)[C@@H](C)C(=O)N[C@H](C)[C@@H](O)c1ccccc1)OC)N(C)C(=O)[C@@H](NC(=O)[C@H](C(C)C)N(C)C)C(C)(C)O [Compound 108]
- IC50 [1]: 0.46 nM
- IC50 [2]: 0.14 nM

SMILES: CC[C@H](C)[C@@H]([C@@H](CC(=O)N1CCC[C@H]1[C@H](OC)[C@@H](C)C(=O)N[C@H](C)[C@@H](O)c1ccccc1)OC)N(C)C(=O)[C@@H](NC(=O)[C@@H](NC)C(C)C)C(C)(C)O [Compound 109] (H-[NMeV][Val(3-OH)][Dil][Dolaproine]-X1)
- IC50 [1]: 10.9 nM
- IC50 [3]: 14.9 nM
- IC50 [2]: 26.1 nM
